Results taken from patent US12319684B2 (Sanford Burnham Prebys Medical Discovery Institute, priority 2014, dated 2025).
Read-outs that look alike come from different tables or passages of the source.

Target: T1, human apelin receptor (APJ, AGTRL-1, APLNR) (Homo sapiens, UniProt P35414)
T1 construct: host or cells: Chinese hamster ovary cells
T1 sequence (P35414 1-380): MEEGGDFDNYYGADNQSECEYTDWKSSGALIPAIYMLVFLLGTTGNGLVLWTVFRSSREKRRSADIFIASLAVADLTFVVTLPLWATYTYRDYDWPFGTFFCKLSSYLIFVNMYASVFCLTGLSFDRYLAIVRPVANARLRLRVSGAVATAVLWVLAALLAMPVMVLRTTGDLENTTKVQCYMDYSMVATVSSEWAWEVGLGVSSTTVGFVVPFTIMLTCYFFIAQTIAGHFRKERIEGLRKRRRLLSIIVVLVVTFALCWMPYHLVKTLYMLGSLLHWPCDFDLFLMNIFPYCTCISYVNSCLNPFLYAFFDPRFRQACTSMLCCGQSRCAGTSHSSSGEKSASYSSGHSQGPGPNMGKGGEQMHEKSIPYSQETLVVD
Experiment: APJ cAMP cell-based assay (forskolin-stimulated CHO cells, enzyme fragment complementation)
Conditions: for Emax: CHO, 0.5 h, read-out: APJ cAMP % resp (efficacy)
Experimental: The assays disclosed herein were performed using cell lines from DiscoveRx, Inc.
Biological activity was determined in a cell-based assay. This assay detects activation of the receptor by reporting on intracellular cyclic adenosine monophosphate (cAMP) level. Chinese hamster ovary cells engineered to express a stably integrated human apelin receptor (APJ, AGTRL-1, APLNR), were plated into the wells of a microtiter plate. Cells were stimulated with forskolin to increase intracellular cAMP. Immediately following, compounds were added at a range of final concentrations 0.0-100 μM, in DMSO (not to exceed a final DMSO concentration of >1% v/v), and allowed to incubate with the cells for 0.5 h. At the end of the incubation, cells were lysed to stop APJ signaling, and cAMP was quantified using a commercially available assay kit that applies enzyme fragment complementation technology and bioluminescence, in a competitive ELISA format.
Compound efficacy (% resp) is reported as a percentage of the maximal apelin-13 response at 1 nM (control).

[1] = CHO cells expressing human APJ, forskolin-stimulated, 0.5 h incubation, 50% of control (apelin-13, 1 nM) response, read-out: APJ cAMP EC50
[2] = percentage of the maximal apelin-13 response at 1 nM (control)

| EC50 [1] | Emax [2] | Structure (SMILES) | EC50 | Emax |
| --- | --- | --- | --- | --- |
| 23.4 nM | 107% | COc1ccccc1-n1c(SCc2cc(=O)n3cc(F)ccc3n2)nnc1-c1cccs1 [Example 49, 7-Fluoro-2-[4-(2-methoxy-phenyl)-5-thiophen-2-yl-4H-[1,2,4]triazol-3-ylsulfanylmethyl]-pyrido[1,2-a]pyrimidin-4-one] | – | – |
| 2490 nM | 58% | COc1ccccc1-n1c(SCc2coc(-c3ccc(C)cc3)n2)nnc1-c1cccs1 [Example 41, 4-(2-Methoxy-phenyl)-3-thiophen-2-yl-5-(2-p-tolyl-oxazol-4-ylmethylsulfanyl)-4H-[1,2,4]triazole] | – | – |
| 252 nM | 62% | Cc1ccc2nc(CSc3nnc(-c4cccs4)n3-c3ccccc3Cl)cc(=O)n2c1 [Example 29, 2-[4-(2-Chloro-phenyl)-5-thiophen-2-yl-4H-[1,2,4]triazol-3-ylsulfanylmethyl]-7-methyl-pyrido[1,2-a]pyrimidin-4-one] | – | – |
| 17.4 nM | 82% | Cc1ccc2nc(CSc3nnc(-c4cccs4)n3-c3ccccc3OC(F)(F)F)cc(=O)n2c1 [Example 27, 7-Methyl-2-[5-thiophen-2-yl-4-(2-trifluoromethoxy-phenyl)-4H-[1,2,4]triazol-3-ylsulfanylmethyl]-pyrido[1,2-a]pyrimidin-4-one] | – | – |
| 140 nM | 106% | COc1ccccc1-n1c(SCc2ccc([N+](=O)[O-])cc2)nnc1-c1cccs1 [Example 72, 4-(2-Methoxy-phenyl)-3-(4-nitro-benzylsulfanyl)-5-thiophen-2-yl-4H-[1,2,4]triazole] | – | – |
| > 10000 nM | 52% | COc1ccccc1-n1c(OCc2ccccc2)nnc1-c1cccs1 [Example 82, 3-(benzyloxy)-4-(2-methoxyphenyl)-5-(thiophen-2-yl)-4H-1,2,4-triazole] | – | – |
| 1460 nM | 33% | COc1ccccc1-n1c(SCc2csc(-c3ccc(C(F)(F)F)cc3)n2)nnc1-c1cccs1 [Example 32, 4-(2-Methoxy-phenyl)-3-thiophen-2-yl-5-[2-(4-trifluoromethyl-phenyl)-thiazol-4-ylmethylsulfanyl]-4H-[1,2,4]triazole] | – | – |
| 125 nM | 108% | COc1ccccc1-n1c(SCc2nc(=O)c3ccc(F)cc3[nH]2)nnc1-c1cccs1 [Example 63, 7-Fluoro-2-[4-(2-methoxy-phenyl)-5-thiophen-2-yl-4H-[1,2,4]triazol-3-ylsulfanylmethyl]-1H-quinazolin-4-one] | – | – |
| 18.2 nM | 150% | COc1ccccc1-n1c(SCc2cc(=O)n3cc(C)ccc3n2)nnc1-c1ccc(Br)o1 [Example 10, 2-[5-(5-Bromo-furan-2-yl)-4-(2-methoxy-phenyl)-4H-[1,2,4]triazol-3-ylsulfanylmethyl]-7-methyl-pyrido[1,2-a]pyrimidin-4-one] | – | – |
| 70.5 nM | 130% | COc1ccc2nc(CSc3nnc(-c4cccs4)n3-c3ccccc3OC)cc(=O)n2c1 [Example 45, 7-Methoxy-2-[4-(2-methoxy-phenyl)-5-thiophen-2-yl-4H-[1,2,4]triazol-3-ylsulfanylmethyl]-pyrido[1,2-a]pyrimidin-4-one] | – | – |

Second part, the compound before the results:

| Structure (SMILES) | EC50 [1] | Emax [2] | EC50 | Emax |
| --- | --- | --- | --- | --- |
| Cc1ccc2nc(CSc3nnc(-c4cccs4)n3-c3ccc(Cl)cc3)cc(=O)n2c1 [Example 26, 2-[4-(4-Chloro-phenyl)-5-thiophen-2-yl-4H-[1,2,4]triazol-3-ylsulfanylmethyl]-7-methyl-pyrido[1,2-a]pyrimidin-4-one] | > 10000 nM | 86% | – | – |
| COc1ccccc1-n1c(SCc2cc(=O)n3cc(C)ccc3n2)nnc1-c1ccc(C#N)cc1 [Example 13, 4-[4-(2-Methoxy-phenyl)-5-(7-methyl-4-oxo-4H-pyrido[1,2-a]pyrimidin-2-ylmethylsulfanyl)-4H-[1,2,4]triazol-3-yl]-benzonitrile] | 1420 nM | 94% | – | – |
| COc1ccccc1-n1c(SCc2cc(=O)n3cc(Br)ccc3n2)nnc1-c1cccs1 [Example 46, 7-Bromo-2-[4-(2-methoxy-phenyl)-5-thiophen-2-yl-4H-[1,2,4]triazol-3-ylsulfanylmethyl]-pyrido[1,2-a]pyrimidin-4-one] | 7.8 nM | 117% | – | – |
| COc1ccccc1-n1c(SCc2coc(-c3ccc(Cl)cc3)n2)nnc1-c1cccs1 [Example 40, 3-[2-(4-Chloro-phenyl)-oxazol-4-ylmethylsulfanyl]-4-(2-methoxy-phenyl)-5-thiophen-2-yl-4H-[1,2,4]triazole] | 3340 nM | 58% | – | – |
| COc1ccccc1-n1c(SCc2cc(=O)n3cc(C)ccc3n2)nnc1-c1cccn1C [Example 18, 2-[4-(2-Methoxy-phenyl)-5-(1-methyl-1H-pyrrol-2-yl)-4H-[1,2,4]triazol-3-ylsulfanylmethyl]-7-methyl-pyrido[1,2-a]pyrimidin-4-one] | 1700 nM | 58% | – | – |
| COc1ccccc1-n1c(SCc2nc(=O)c3ccccc3[nH]2)nnc1-c1cccs1 [Example 52, 2-[4-(2-Methoxy-phenyl)-5-thiophen-2-yl-4H-[1,2,4]triazol-3-ylsulfanylmethyl]-1H-quinazolin-4-one] | – | – | 240 nM | 113% |
| COc1cccc(-n2c(SCc3cc(=O)n4cc(C)ccc4n3)nnc2-c2cccs2)c1 [Example 22, 2-[4-(3-Methoxy-phenyl)-5-thiophen-2-yl-4H-[1,2,4]triazol-3-ylsulfanylmethyl]-7-methyl-pyrido[1,2-a]pyrimidin-4-one] | 1240 nM | 134% | – | – |
| COc1ccccc1-n1c(SCc2nc(=O)c3cc(C(F)(F)F)ccc3[nH]2)nnc1-c1cccs1 [Example 64, 2-[4-(2-Methoxy-phenyl)-5-thiophen-2-yl-4H-[1,2,4]triazol-3-ylsulfanylmethyl]-6-trifluoromethyl-1H-quinazolin-4-one] | 365 nM | 92% | – | – |
| COc1ccccc1-n1c(SCc2cc(=O)n3cc(C#N)ccc3n2)nnc1-c1cccs1 [Example 47, 2-[4-(2-Methoxy-phenyl)-5-thiophen-2-yl-4H-[1,2,4]triazol-3-ylsulfanylmethyl]-4-oxo-4H-pyrido[1,2-a]pyrimidine-7-carbonitrile] | 25.2 nM | 54% | – | – |
| COc1ccccc1-n1c(SCc2ccc3ccccc3n2)nnc1-c1cccs1 [Example 68, 2-[4-(2-Methoxy-phenyl)-5-thiophen-2-yl-4H-[1,2,4]triazol-3-ylsulfanylmethyl]-quinoline] | 211 nM | 79% | – | – |
| COc1ccccc1-n1c(SCc2ccc(C)cc2)nnc1-c1cccs1 [Example 75, 4-(2-Methoxy-phenyl)-3-(4-methyl-benzylsulfanyl)-5-thiophen-2-yl-4H-[1,2,4]triazole] | 2740 nM | 70% | – | – |
| Cc1ccc2nc(CSc3nnc(-c4cccs4)n3-c3cccc(Cl)c3)cc(=O)n2c1 [Example 28, 2-[4-(3-Chloro-phenyl)-5-thiophen-2-yl-4H-[1,2,4]triazol-3-ylsulfanylmethyl]-7-methyl-pyrido[1,2-a]pyrimidin-4-one] | > 10000 nM | 91% | – | – |
| COc1ccc(-c2nc(CSc3nnc(-c4cccs4)n3-c3ccccc3OC)co2)cc1 [Example 37, 4-(2-Methoxy-phenyl)-3-[2-(4-methoxy-phenyl)-oxazol-4-ylmethylsulfanyl]-5-thiophen-2-yl-4H-[1,2,4]triazole] | 3090 nM | 138% | – | – |
| COc1ccccc1-n1c(SCc2cc(=O)n3cc(C)ccc3n2)nnc1-c1ccsc1 [Example 17, 2-[4-(2-Methoxy-phenyl)-5-thiophen-3-yl-4H-[1,2,4]triazol-3-ylsulfanylmethyl]-7-methyl-pyrido[1,2-a]pyrimidin-4-one] | 90 nM | 109% | – | – |
| COc1ccccc1-n1c(SCc2cc(=O)n3cc(C)ccc3n2)nnc1-c1nccn1C [Example 19, 2-[4-(2-Methoxy-phenyl)-5-(1-methyl-1H-imidazol-2-yl)-4H-[1,2,4]triazol-3-ylsulfanylmethyl]-7-methyl-pyrido[1,2-a]pyrimidin-4-one] | > 10000 nM | 57% | – | – |
| COc1ccccc1-n1c(SCc2nc(=O)c3cc(OC(F)(F)F)ccc3[nH]2)nnc1-c1cccs1 [Example 69, 2-[4-(2-Methoxy-phenyl)-5-thiophen-2-yl-4H-[1,2,4]triazol-3-ylsulfanylmethyl]-6-trifluoromethoxy-1H-quinazolin-4-one] | 1370 nM | – | – | 59% |
| COc1ccccc1-n1c(SCc2coc(-c3ccc(Br)cc3)n2)nnc1-c1cccs1 [Example 42, 3-[2-(4-Bromo-phenyl)-oxazol-4-ylmethylsulfanyl]-4-(2-methoxy-phenyl)-5-thiophen-2-yl-4H-[1,2,4]triazole] | > 10000 nM | 33% | – | – |
| COc1ccc2[nH]c(CSc3nnc(-c4cccs4)n3-c3ccccc3OC)nc(=O)c2c1 [Example 65, 6-Methoxy-2-[4-(2-methoxy-phenyl)-5-thiophen-2-yl-4H-[1,2,4]triazol-3-ylsulfanylmethyl]-1H-quinazolin-4-one] | 304 nM | 101% | – | – |
